Assay [1] has as its target human recombinant GST cleaved CSNK1D (Homo sapiens (Human), UniProt P48730). Put plainly: Purified enzyme assay (ADP-Glo Kinase Assay). In kind it is biochemical. The conditions noted are these: 2 nM CSNK1D, peptide substrate 150 μM, ATP 20 μM, 45 minutes room temperature. On the procedure: In this assay, CSNK1D phosphorylates a substrate peptide PLSRTL-pS-VASLPGL in the presence of ATP. […] This assay monitors CSNK1D kinase activity by measuring the amount of ADP produced in the assay. A substrate mix is prepared by diluting peptide substrate (final concentration 150 μM) with ATP (final concentration 20 μM) in assay buffer (50 mM Tris/HCl pH 7.4+10 mM MgCl2+1 mM DTT+0.1% BSA). The substrate mix is added to each well of a low volume, 384-well, white opaque plate. Test compounds were diluted in HBSS and added in a dose-response to the plate. To start the reaction, 2 nM of constitutively active human recombinant GST cleaved CSNK1D (University of Dundee, clone DU 19064, stored at 0.28 mg/mL in 50 mM Tris/HCl pH 7.5, 150 mM NaCl, 270 mM Sucrose, 0.1 mM EGTA, 0.1% 2-mercaptoethanol, 0.02% Brij-35.1 mM benzamidine, 0.2 mM PMSF) was added to each well and the plate centrifuged for 5 minutes at 1500 rpm. The total volume of each reaction is 5 ul (2 μL of substrate mix, 1 μL of diluted compounds, and 2 μL of human recombinant CSNK1D). The plates are incubated for 45 minutes at room temperature.
ADP was quantified using the ADP-Glo™ Kinase Assay. ADP-Glo Reagent (5 μL) was added to each well. After a 1 hour incubation at room temperature, Kinase Detection Reagent (10 μL) was added to each well and incubated for 30 minutes. Luminescence was measured on the Perkin Elmer Wallac EnVision 2104 Multi-label Reader. The raw data from the Envision is used to calculate percent activity.

Assay [2] deals with human CSNK1D tagged with nanoluciferase (Homo sapiens (Human), UniProt P48730). Description: Whole Cell nBRET CSNK1D Binding Assay. The conditions noted are these: living CHO cells stably expressing human CSNK1D-nanoluciferase; NanoBret tracer 130 nM; 2 hours 37° C.; read-out: CSNK1D BRET IC50. Here is the method:
This cellular binding assay uses a bioluminescence resonance energy transfer to measure human CSNK1D binding activity in living Chinese Hamster Ovary (CHO) cells that are stably expressing human CSNK1D tagged with nanoluciferase. The cells were grown to confluency in growth media (DMEM:F12, 50 u/mLPen/Strep, […] glutamine, and 0.6 mg/mL G418) in 10 cm^2 dishes. Cells were seeded onto white, opaque 384-well plates (Corning, cat #3704) at a density of 8,000 cells/well in serum-free OptiMEM and left to incubated overnight at 37° C., […]. The next day, test compounds were added in a dose response to the plate followed by a NanoBret tracer (130 nM). The plate is mixed on an orbital shaker for 30 seconds, then placed in a 37° C. incubator for 2 hours. NanoBret Nano-Glo Substrate solution (20 μL) is added to all wells and incubated for 3 minutes at room temperature. Donor (450 nm) and acceptor (630 nm) emissions are then measured within 10 minutes using a ClarioStar plate reader. The data is used to calculate millibret units, defined as (E630/E450)*1000. Bret emissions are then graphed against the log of compound concentrations and these graphs are used to determine the IC50 of each compound.

Data on 27 compounds can be found in patent US20230339900A1, “CASEIN KINASE 1 DELTA MODULATORS” (Janssen Pharmaceutica NV, priority 2020, published 2023).

human recombinant GST cleaved CSNK1D, sequence (P48730 whole entry): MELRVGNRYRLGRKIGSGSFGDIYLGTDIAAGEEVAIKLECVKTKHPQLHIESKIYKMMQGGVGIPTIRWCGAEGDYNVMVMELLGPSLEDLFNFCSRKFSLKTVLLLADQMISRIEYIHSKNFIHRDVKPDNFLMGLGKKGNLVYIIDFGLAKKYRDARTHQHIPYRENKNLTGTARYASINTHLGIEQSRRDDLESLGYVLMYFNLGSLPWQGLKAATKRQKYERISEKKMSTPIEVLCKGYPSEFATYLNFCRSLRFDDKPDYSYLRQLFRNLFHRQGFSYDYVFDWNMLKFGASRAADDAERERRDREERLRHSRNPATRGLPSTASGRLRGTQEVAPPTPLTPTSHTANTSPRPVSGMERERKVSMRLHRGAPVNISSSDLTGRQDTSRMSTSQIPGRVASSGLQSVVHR
human CSNK1D tagged with nanoluciferase, sequence (P48730 whole entry): as above

In the case of `Cn1cc(-c2ccnc3cc(F)cnc23)c(-c2ccc(F)cn2)n1` [Example 152, 3-Fluoro-8-[3-(5-fluoro-2-pyridyl)-1-methyl-pyrazol-4-yl]-1,5-naphthyridine], in assay [1], the AC50 was 73 nM. The IC50 in assay [2] turned out to be 578 nM.

With `Cc1cc(-c2cn(C3CCC3)nc2-c2ccc(F)cn2)c2cn[nH]c2n1` [Example 71, 4-(1-Cyclobutyl-3-(5-fluoropyridin-2-yl)-1H-pyrazol-4-yl)-6-methyl-1H-pyrazolo[3,4-b]pyridine], in assay [1], the AC50 was found to be 3 nM. The IC50 in assay [2] amounted to 113 nM.

Consider `CCOc1ccc2nccc(-c3cn(C)nc3-c3ccc(F)cn3)c2n1` [Example 128, 2-Ethoxy-8-[3-(5-fluoro-2-pyridyl)-1-methyl-pyrazol-4-yl]-1,5-naphthyridine], for which the AC50 in assay [1] turned out to be 11 nM. Besides, the IC50 in assay [2] was found to be 103 nM.

`Cn1cc(-c2ccnc3[nH]c(C(F)(F)F)cc23)c(-c2ccc(F)cn2)n1` [Example 85, 4-(3-(5-Fluoropyridin-2-yl)-1-methyl-1H-pyrazol-4-yl)-2-(trifluoromethyl)-1H-pyrrolo[2,3-b]pyridine]: the AC50 in assay [1] is 22 nM. Further, the 50% inhibitory concentration (IC50) in assay [2] amounted to 255 nM.

With `Cn1cc(-c2cc(C3CC3)nc3[nH]ncc23)c(-c2ccc(F)cn2)n1` [Example 101, 6-Cyclopropyl-4-(3-(5-fluoropyridin-2-yl)-1-methyl-1H-pyrazol-4-yl)-1H-pyrazolo[3,4-b]pyridine], the AC50 in assay [1] turned out to be 34 nM. Moreover, the IC50 in assay [2] came to 829 nM.

In the case of `COCCn1cc(-c2cc(C)nc3[nH]ncc23)c(-c2ccc(F)cn2)n1` [Example 64, 4-(3-(5-Fluoropyridin-2-yl)-1-(2-methoxyethyl)-1H-pyrazol-4-yl)-6-methyl-1H-pyrazolo[3,4-b]pyridine], the concentration at half-maximal activity (AC50) in assay [1] is 19 nM. Besides, in assay [2], the IC50 came to 393 nM.

Take `Cn1cc(-c2c(F)cnc3[nH]ccc23)c(-c2ccc(F)cn2)n1` [Example 78, 5-Fluoro-4-[3-(5-fluoro-2-pyridyl)-1-methyl-pyrazol-4-yl]-1H-pyrrolo[2,3-b]pyridine]: the AC50 in assay [1] was 4 nM. Besides, the IC50 in assay [2] is 50 nM.

`Cn1cc(-c2ccnc3[nH]ccc23)c(-c2ccc(OC(F)F)cn2)n1` [Example 35, 4-[3-[5-(Difluoromethoxy)-2-pyridyl]-1-methyl-pyrazol-4-yl]-1H-pyrrolo[2,3-b]pyridine]: in assay [1], the concentration at half-maximal activity (AC50) stood at 9180 nM. For the same compound, the IC50 in assay [2] was above 10000 nM.

Regarding `Cn1cnc(-c2nn(C)cc2-c2ccnc3[nH]ccc23)c1` [Example 9, 4-(1-Methyl-3-(1-methyl-1H-imidazol-4-yl)-1H-pyrazol-4-yl)-1H-pyrrolo[2,3-b]pyridine], in assay [1], the AC50 worked out at 16 nM. The concentration for half-maximal inhibition (IC50) in assay [2] was found to be 568 nM.

Consider `Cc1csc2c(-c3cn(C)nc3-c3ccc(F)cn3)ccnc12` [Example 132, 7-[3-(5-Fluoro-2-pyridyl)-1-methyl-pyrazol-4-yl]-3-methyl-thieno[3,2-b]pyridine], for which, in assay [1], the half-maximal activity concentration (AC50) turned out to be 361 nM. In assay [2], the IC50 worked out at 5170 nM.

For `Cn1cc(-c2ccnc3c2CCCN3)c(-c2ccc(F)cn2)n1` [Example 114, 5-[3-(5-Fluoro-2-pyridyl)-1-methyl-pyrazol-4-yl]-1,2,3,4-tetrahydro-1,8-naphthyridine], the AC50 in assay [1] turned out to be 166 nM. For the same compound, in assay [2], the concentration for half-maximal inhibition (IC50) was 4230 nM.

Regarding `Cn1cc(-c2ccnc3c2CCNC3)c(-c2ccc(F)cn2)n1` [Example 113, 4-[3-(5-Fluoro-2-pyridyl)-1-methyl-pyrazol-4-yl]-5,6,7,8-tetrahydro-1,7-naphthyridine], the AC50 in assay [1] was 144 nM. The concentration for half-maximal inhibition (IC50) in assay [2] is above 10000 nM.

Turning to `Cc1cc(-c2cn(C)nc2-c2c(C)cncc2F)c2cn[nH]c2n1` [Example 140, 4-[3-(3-Fluoro-5-methyl-4-pyridyl)-1-methyl-pyrazol-4-yl]-6-methyl-1H-pyrazolo[3,4-b]pyridine], the AC50 in assay [1] stood at 1170 nM. Moreover, the IC50 in assay [2] was above 10000 nM.

In the case of `COc1ncc(-c2nn(C)cc2-c2cc(C)nc3[nH]ncc23)cc1Cl` [Example 142, 4-[3-(5-Chloro-6-methoxy-3-pyridyl)-1-methyl-pyrazol-4-yl]-6-methyl-1H-pyrazolo[3,4-b]pyridine], the AC50 in assay [1] is 28 nM. Further, the IC50 in assay [2] is 382 nM.

`Cc1cc(-c2nn(C)cc2-c2cc(C)nc3[nH]ncc23)cnn1` [Example 143, 6-Methyl-4-[1-methyl-3-(6-methylpyridazin-4-yl)pyrazol-4-yl]-1H-pyrazolo[3,4-b]pyridine]: the AC50 in assay [1] is 1540 nM. Also, in assay [2], the IC50 was above 10000 nM.

On to `Cn1cc(-c2ccnc3[nH]ccc23)c(-c2ccncc2)n1` [Example 17, 4-[1-Methyl-3-(4-pyridyl)pyrazol-4-yl]-1H-pyrrolo[2,3-b]pyridine], for which the concentration at half-maximal activity (AC50) in assay [1] was found to be 101 nM. The 50% inhibitory concentration (IC50) in assay [2] was 1640 nM.

Turning to `Cn1cc(-c2ccnc3[nH]ccc23)c(-c2ccncn2)n1` [Example 44, 4-(1-Methyl-3-pyrimidin-4-yl-pyrazol-4-yl)-1H-pyrrolo[2,3-b]pyridine], in assay [1], the concentration at half-maximal activity (AC50) is 54 nM. The IC50 in assay [2] was determined as 469 nM.

`Cn1cc(-c2ccnc3[nH]ccc23)c(-c2ccc(OC(F)F)nc2)n1` [Example 23, 4-[3-[6-(Difluoromethoxy)-3-pyridyl]-1-methyl-pyrazol-4-yl]-1H-pyrrolo[2,3-b]pyridine]: the AC50 in assay [1] worked out at 551 nM. The half-maximal inhibitory concentration (IC50) in assay [2] is above 10000 nM.

Turning to `Cn1cc(-c2ccnc3[nH]ccc23)c(-c2cccnn2)n1` [Example 48, 4-(1-Methyl-3-pyridazin-3-yl-pyrazol-4-yl)-1H-pyrrolo[2,3-b]pyridine], the concentration at half-maximal activity (AC50) in assay [1] is 39 nM. In assay [2], the half-maximal inhibitory concentration (IC50) worked out at 3470 nM.

Consider `COc1cc2nccc(-c3cn(C)nc3-c3ccc(F)cn3)c2cn1` [Example 154, 4-[3-(5-Fluoro-2-pyridyl)-1-methyl-pyrazol-4-yl]-7-methoxy-1,6-naphthyridine], for which the half-maximal activity concentration (AC50) in assay [1] is 25 nM. Also, the half-maximal inhibitory concentration (IC50) in assay [2] is 522 nM.

Turning to `Cn1cc(-c2ccnc3[nH]ncc23)c(-c2ccc(C(F)F)cn2)n1` [Example 33, 4-(3-(5-(Difluoromethyl)pyridin-2-yl)-1-methyl-1H-pyrazol-4-yl)-1H-pyrazolo[3,4-b]pyridine], in assay [1], the AC50 came out at 317 nM. The IC50 in assay [2] stood at 17800 nM.

Turning to `Cn1cc(-c2ccnc3[nH]ccc23)c(-c2cnccn2)n1` [Example 46, 4-(1-Methyl-3-pyrazin-2-yl-pyrazol-4-yl)-1H-pyrrolo[2,3-b]pyridine], in assay [1], the AC50 came to 84 nM. Moreover, the IC50 in assay [2] was determined as 2190 nM.

`Cn1cc(-c2ccnc3[nH]cc(Br)c23)c(-c2ccc(F)cn2)n1` [Example 75, 3-Bromo-4-[3-(5-fluoro-2-pyridyl)-1-methyl-pyrazol-4-yl]-1H-pyrrolo[2,3-b]pyridine]: in assay [1], the AC50 worked out at 1 nM. Also, the concentration for half-maximal inhibition (IC50) in assay [2] worked out at 24 nM.

As for `CCn1ncc2cc(-c3cn(C)nc3-c3ccc(F)cn3)cnc21` [Example 121, 1-Ethyl-5-[3-(5-fluoro-2-pyridyl)-1-methyl-pyrazol-4-yl]pyrazolo[3,4-b]pyridine], in assay [1], the concentration at half-maximal activity (AC50) was determined as 43 nM. Besides, the IC50 in assay [2] amounted to 1600 nM.

For `Cn1cc(-c2ccnc3[nH]c(C4(O)COC4)cc23)c(-c2ccc(F)cn2)n1` [Example 94, 3-(4-(3-(5-Fluoropyridin-2-yl)-1-methyl-1H-pyrazol-4-yl)-1H-pyrrolo[2,3-b]pyridin-2-yl)oxetan-3-ol], the concentration at half-maximal activity (AC50) in assay [1] came out at 10 nM. In addition, in assay [2], the IC50 amounted to 187 nM.

In the case of `Cn1cc(-c2ccnc3[nH]c(C4(O)CCOC4)cc23)c(-c2ccc(F)cn2)n1` (racemic) [Example 96, (R/S)-3-(4-(3-(5-Fluoropyridin-2-yl)-1-methyl-1H-pyrazol-4-yl)-1H-pyrrolo[2,3-b]pyridin-2-yl)tetrahydrofuran-3-ol], the AC50 in assay [1] came out at 4 nM. In addition, the concentration for half-maximal inhibition (IC50) in assay [2] came to 148 nM.

Take `Cc1cc(-c2cn(C)nc2-c2ccncc2Cl)c2cn[nH]c2n1` [Example 138, 4-[3-(3-Chloro-4-pyridyl)-1-methyl-pyrazol-4-yl]-6-methyl-1H-pyrazolo[3,4-b]pyridine]: in assay [1], the concentration at half-maximal activity (AC50) came to 217 nM. In assay [2], the IC50 is 8620 nM.
